The values that follow come from US9486541B2, “Detecting and treating dementia” (Mayo Foundation for Medical Education and Research, priority 2006, dated 2016).

One assay has as its target T1, PPARα (Homo sapiens, UniProt Q07869).
T1 sequence (Q07869 1-468): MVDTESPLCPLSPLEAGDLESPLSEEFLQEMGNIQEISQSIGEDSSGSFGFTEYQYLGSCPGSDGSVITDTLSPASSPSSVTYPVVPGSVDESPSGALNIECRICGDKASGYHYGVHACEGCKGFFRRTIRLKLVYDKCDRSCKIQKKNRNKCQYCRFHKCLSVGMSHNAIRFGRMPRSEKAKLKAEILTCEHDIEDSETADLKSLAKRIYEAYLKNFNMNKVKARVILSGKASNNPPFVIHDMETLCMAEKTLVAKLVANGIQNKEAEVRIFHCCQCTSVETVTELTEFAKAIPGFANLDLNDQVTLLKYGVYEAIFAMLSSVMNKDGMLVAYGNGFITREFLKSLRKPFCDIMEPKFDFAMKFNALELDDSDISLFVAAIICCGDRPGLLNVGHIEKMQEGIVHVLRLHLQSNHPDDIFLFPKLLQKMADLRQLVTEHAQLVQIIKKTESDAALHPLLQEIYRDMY
To be noted: Leesnitzer et al.; cited from earlier work.

In a further assay the target is T2, PPARδ (Homo sapiens, UniProt Q03181).
T2 sequence (Q03181 1-441): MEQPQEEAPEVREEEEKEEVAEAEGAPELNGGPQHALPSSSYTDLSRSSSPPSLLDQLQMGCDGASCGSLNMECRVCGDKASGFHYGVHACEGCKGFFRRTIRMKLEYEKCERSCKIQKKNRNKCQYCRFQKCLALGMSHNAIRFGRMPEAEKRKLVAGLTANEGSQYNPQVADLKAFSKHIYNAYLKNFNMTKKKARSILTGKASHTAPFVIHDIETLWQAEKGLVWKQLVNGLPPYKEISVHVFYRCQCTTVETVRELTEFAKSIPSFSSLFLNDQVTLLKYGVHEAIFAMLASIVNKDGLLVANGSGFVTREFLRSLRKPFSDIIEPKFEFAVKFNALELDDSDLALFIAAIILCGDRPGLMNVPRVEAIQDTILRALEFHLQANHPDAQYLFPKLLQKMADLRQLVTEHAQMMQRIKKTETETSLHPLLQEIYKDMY
Particulars: Leesnitzer et al.; cited from earlier work.

For another assay, the system named is PGRN mRNA. To be noted: myeloid cells, Ong et al.; cited from earlier work.
In assay [1] the test system is PGRN polypeptide. The assay can be described thus: PGRN polypeptide levels in treated N2A mouse neuroblastoma cells. The format is cell-based. Particulars: N2A cells, ibuprofen 1 to 5 μM. As to the method:
Cell cultures were maintained in standard cell culture media supplemented with 5% fetal bovine serum and 100 U/mL penicillin/streptomycin (Life Technologies, Karlsruhe, Germany). Cell cultures consisted of Chinese hamster ovary (CHO) cells; human HeLa cells (HeLa); BE(2)-M17, human neuroblastoma (M17); […] The following NSAIDs were dissolved in the vehicle DMSO: ibuprofen (Biomol, Plymouth Meeting, Pa.), indomethacin (Biomol), diclofenac (Cayman Chemical, Ann Arbor, Mich.), naproxen (Cayman Chemical), and aspirin (ICN Biomedicals, Irvine, Calif.). Cells were cultured in serum-containing media and treated for 24 hours in serum-free media with a specific NSAID. […] For cell toxicity studies, cells were treated with NSAIDS at concentrations up to 100 micromolar. The following PPAR activators were dissolved in DMSO: ciglitazone (Calbiochem, San Diego, Calif.), fenofibrate (Sigma-Aldrich, Saint Louis, Mo.), clofibrate (Calbiochem), and L165041 (Calbiochem). Cells were cultured in serum-containing media and treated for 24 hours in serum-free media with a specific PPAR agonist. […]

The subject of assay [2] is PGRN polypeptide. Description: PGRN polypeptide expression in HeLa cells by immunohistochemistry. Type of assay: cell-based, human. To be noted: ibuprofen 2.5 μM for 24 hours, vs untreated. How it is done: Treated and untreated HeLa cells were analyzed for PGRN polypeptide expression using immunohistochemistry. […] Levels of PGRN polypeptide in cell culture supernatants and cell lysates of HeLa cells treated with various concentrations of ibuprofen were compared to corresponding PGRN polypeptide levels in HeLa cells treated with DMSO (FIG. 26).

For assay [3], the system named is PGRN polypeptide. The assay can be described thus: PGRN polypeptide levels in cell lysates and culture supernatants of treated HeLa cells, Western blotting. Particulars: 1.25 to 20 micromolar ibuprofen, 24 hours, vs DMSO. Type of assay: cell-based, human. How it is done: Cell cultures were maintained in standard cell culture media supplemented with 5% fetal bovine serum and 100 U/mL penicillin/streptomycin (Life Technologies, Karlsruhe, Germany). Cell cultures consisted of Chinese hamster ovary (CHO) cells; human HeLa cells (HeLa); BE(2)-M17, human neuroblastoma (M17); N2A, mouse neuroblastoma; and human lymphoblasts.
The following NSAIDs were dissolved in the vehicle DMSO: ibuprofen (Biomol, Plymouth Meeting, Pa.), indomethacin (Biomol), diclofenac (Cayman Chemical, Ann Arbor, Mich.), naproxen (Cayman Chemical), and aspirin (ICN Biomedicals, Irvine, Calif.). Cells were cultured in serum-containing media and treated for 24 hours in serum-free media with a specific NSAID. NSAID toxicity was examined using a standard MTT-assay (3-(4,5-Dimethyl-2-thiazolylyl)-2,5-diphenyl-2H-tetrazolium Bromide). For cell toxicity studies, cells were treated with NSAIDS at concentrations up to 100 micromolar.
Antibodies that were used included a monoclonal human progranulin antibody (Zymed, South San Francisco, Calif.) directed against full length progranulin polypeptide, a mouse progranulin antibody (R&D Systems, Minneapolis, Minn.) directed against full length progranulin polypeptide, and an anti-GAPDH antibody (Sigma-Aldrich).
HeLa cell cultures (N=4 for all studies) were treated with various concentrations of NSAIDs, including ibuprofen, naproxen, indomethacin, meclofenamic acid, and acetylsalicylic acid for 24 hours in serum free media. Levels of PGRN polypeptide in culture supernatants and in cell lysates were analyzed using Western blotting.
In general terms: A western blot detects proteins with antibodies after separation by electrophoresis.

A further assay has as its system GAPDH polypeptide. Description: GAPDH polypeptide expression in treated HeLa cells, Western blot. Type of assay: cell-based, human. Particulars: ibuprofen treatment.
In assay [4] the test system is PGRN polypeptide. The assay can be described thus: PGRN polypeptide levels in cell lysates and culture supernatants of treated M17 cells, Western blotting. The format is cell-based, human. To be noted: M17 cells, ibuprofen 1 to 5 μM. How it is done: Cell cultures were maintained in standard cell culture media supplemented with 5% fetal bovine serum and 100 U/mL penicillin/streptomycin (Life Technologies, Karlsruhe, Germany). Cell cultures consisted of Chinese hamster ovary (CHO) cells; human HeLa cells (HeLa); BE(2)-M17, human neuroblastoma (M17); […] The following PPAR activators were dissolved in DMSO: ciglitazone (Calbiochem, San Diego, Calif.), fenofibrate (Sigma-Aldrich, Saint Louis, Mo.), clofibrate (Calbiochem), and L165041 (Calbiochem). Cells were cultured in serum-containing media and treated for 24 hours in serum-free media with a specific PPAR agonist. Curcumin (Sigma-Aldrich) and resveratrol (Sigma-Aldrich) were dissolved in DMSO. Cells were cultured in serum-containing media and treated for 24 hours in serum-free media with curcumin or resveratrol. Antibodies that were used included a monoclonal human progranulin antibody (Zymed, South San Francisco, Calif.) directed against full length progranulin polypeptide, a mouse progranulin antibody (R&D Systems, Minneapolis, Minn.) directed against full length progranulin polypeptide, and an anti-GAPDH antibody (Sigma-Aldrich). Cell cultures were treated with increasing concentrations of the PPARα activator clofibrate or with DMSO. Levels of PGRN polypeptide in culture supernatants and in cell lysates were analyzed using Western blotting. The levels of intracellular and secreted forms of PGRN polypeptide were compared in clofibrate treated M17 cell cultures and DMSO treated M17 cell cultures (FIG. 20).

In the next assay the target is T3, PPARγ (Homo sapiens, UniProt P37231).
T3 sequence (P37231 1-505): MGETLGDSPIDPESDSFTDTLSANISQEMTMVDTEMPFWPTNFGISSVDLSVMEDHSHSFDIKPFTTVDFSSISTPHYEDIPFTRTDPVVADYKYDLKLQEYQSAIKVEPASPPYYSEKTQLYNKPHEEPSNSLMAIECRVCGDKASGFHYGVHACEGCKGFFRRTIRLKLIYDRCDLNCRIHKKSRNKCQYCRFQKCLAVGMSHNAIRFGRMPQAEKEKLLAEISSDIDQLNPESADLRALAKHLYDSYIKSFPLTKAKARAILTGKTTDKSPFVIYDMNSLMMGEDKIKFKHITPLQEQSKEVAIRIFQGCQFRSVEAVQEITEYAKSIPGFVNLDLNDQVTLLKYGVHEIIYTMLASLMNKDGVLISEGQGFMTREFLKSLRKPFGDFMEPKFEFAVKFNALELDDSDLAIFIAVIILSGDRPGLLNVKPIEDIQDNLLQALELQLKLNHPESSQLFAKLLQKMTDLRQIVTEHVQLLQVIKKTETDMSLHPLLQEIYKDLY
Particulars: highly selective agonist, commercial vendors; cited from earlier work.

As to `O=C(Nc1ccccc1)c1cc([N+](=O)[O-])ccc1Cl` [GW9662, 2-Chloro-5-nitro-N-phenylbenzamide], at PPARα, the “block of PPARα receptors” value is “low nM range”. The “block of PPARδ receptors” value on PPARδ is given as “low micromolar range”.
Regarding `CC1=C(/C=C/C(C)=C/C=C/C(C)=C/C(=O)O)C(C)(C)CCC1` [all trans-retinoic acid], the “PGRN mRNA level” value with PGRN mRNA is recorded as “upregulation of PGRN mRNA”.
Take `CC(C)Cc1ccc(C(C)C(=O)O)cc1` (stereo not drawn) [ibuprofen]: the “increase in PGRN polypeptide expression” value in the assay with PGRN polypeptide [1] and in the assay on PGRN polypeptide [4] was “up to 600%” in each case. Also, in the assay with PGRN polypeptide [2], the “PGRN polypeptide expression by immunohistochemistry” value is listed as “increased PGRN polypeptide expression in the Golgi”. The “increase in the level of intracellular PGRN polypeptide” value in the assay on PGRN polypeptide [3] was “approximately 150%”. Further, the “effect on GAPDH polypeptide expression” value in the assay on GAPDH polypeptide is “No significant effect”.
For GW1929, the “PPARγ agonist activity range” value at PPARγ is listed as “low nM range”.
